# Key:
# Assay in all cases: SelectScreen kinase panel
# Format in all cases: biochemical
# CDK2/CyclinA = molecular target: T1, CDK2/CyclinA (Homo sapiens, UniProt P24941)
# T1 construct: purchased Invitrogen / ThermoFisher SelectScreen
# How it was run: (§1)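 Using one of three vendor formats (Z′-LYTE, Adapta, LanthaScreen), Invitrogen measured compound effects across its SelectScreen kinase collection. Average inhibition percentages are listed.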
# CHK2 = molecular target: T2, CHK2 (Homo sapiens, UniProt O96017)
# T2 construct: purchased Invitrogen / ThermoFisher SelectScreen
# How it was run: as §1
# CK1_delta = molecular target: T3, CK1_delta (Homo sapiens, UniProt P48730)
# T3 construct: purchased Invitrogen / ThermoFisher SelectScreen
# How it was run: as §1
# CLK3 = molecular target: T4, CLK3 (Homo sapiens, UniProt P49761)
# T4 construct: purchased Invitrogen / ThermoFisher SelectScreen
# How it was run: as §1
# CamKII_alpha = molecular target: T5, CamKII_alpha (Homo sapiens, UniProt Q9UQM7)
# T5 construct: purchased Invitrogen / ThermoFisher SelectScreen
# How it was run: as §1
# Cot = molecular target: T6, Cot (Homo sapiens, UniProt P41279)
# T6 construct: purchased Invitrogen / ThermoFisher SelectScreen
# How it was run: as §1
# DYRK1A = molecular target: T7, DYRK1A (Homo sapiens, UniProt Q13627)
# T7 construct: purchased Invitrogen / ThermoFisher SelectScreen
# How it was run: as §1
# FAK = molecular target: T8, FAK (Homo sapiens, UniProt Q05397)
# T8 construct: purchased Invitrogen / ThermoFisher SelectScreen
# How it was run: as §1
# FGFR4 = molecular target: T9, FGFR4 (Homo sapiens, UniProt P22455)
# T9 construct: purchased Invitrogen / ThermoFisher SelectScreen
# T9 sequence (P22455 22-802): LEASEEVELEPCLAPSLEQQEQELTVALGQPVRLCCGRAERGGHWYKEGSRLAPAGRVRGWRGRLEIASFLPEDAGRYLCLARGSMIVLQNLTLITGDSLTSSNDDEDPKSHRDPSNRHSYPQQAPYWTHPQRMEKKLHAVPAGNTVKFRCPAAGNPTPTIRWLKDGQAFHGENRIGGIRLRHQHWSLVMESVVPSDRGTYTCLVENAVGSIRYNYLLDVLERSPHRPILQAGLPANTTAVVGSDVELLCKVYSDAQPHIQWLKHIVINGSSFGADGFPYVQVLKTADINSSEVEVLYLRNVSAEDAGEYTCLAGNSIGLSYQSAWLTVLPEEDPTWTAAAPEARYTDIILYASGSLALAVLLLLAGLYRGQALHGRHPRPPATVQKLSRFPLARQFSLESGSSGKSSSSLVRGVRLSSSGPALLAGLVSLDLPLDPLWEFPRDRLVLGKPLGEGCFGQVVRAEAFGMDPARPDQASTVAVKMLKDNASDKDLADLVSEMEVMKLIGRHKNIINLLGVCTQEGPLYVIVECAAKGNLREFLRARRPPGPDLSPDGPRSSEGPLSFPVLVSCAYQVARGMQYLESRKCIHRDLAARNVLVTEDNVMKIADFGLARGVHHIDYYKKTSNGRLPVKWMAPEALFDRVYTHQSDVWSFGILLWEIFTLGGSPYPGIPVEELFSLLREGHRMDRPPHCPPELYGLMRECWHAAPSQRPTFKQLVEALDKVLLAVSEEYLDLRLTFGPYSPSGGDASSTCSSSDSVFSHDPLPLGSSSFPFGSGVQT
# How it was run: as §1
# GRK2 = molecular target: T10, GRK2 (Homo sapiens, UniProt P25098)
# T10 construct: purchased Invitrogen / ThermoFisher SelectScreen
# How it was run: as §1
# GRK3 = molecular target: T11, GRK3 (Homo sapiens, UniProt P35626)
# T11 construct: purchased Invitrogen / ThermoFisher SelectScreen
# How it was run: as §1
# GRK5 = molecular target: T12, GRK5 (Homo sapiens, UniProt P34947)
# T12 construct: purchased Invitrogen / ThermoFisher SelectScreen
# How it was run: as §1
# GRK6 = molecular target: T13, GRK6 (Homo sapiens, UniProt P43250)
# T13 construct: purchased Invitrogen / ThermoFisher SelectScreen
# How it was run: as §1
# HIPK1 = molecular target: T14, HIPK1 (Homo sapiens, UniProt Q86Z02)
# T14 construct: purchased Invitrogen / ThermoFisher SelectScreen
# How it was run: as §1
# IGF1R = molecular target: T15, IGF1R (Homo sapiens, UniProt P08069)
# T15 construct: purchased Invitrogen / ThermoFisher SelectScreen
# How it was run: as §1
# IKK_alpha = molecular target: T16, IKK_alpha (Homo sapiens, UniProt O15111)
# T16 construct: purchased Invitrogen / ThermoFisher SelectScreen
# How it was run: as §1
# JAK2 = molecular target: T17, JAK2 (Homo sapiens, UniProt O60674)
# T17 construct: purchased Invitrogen / ThermoFisher SelectScreen
# How it was run: as §1
# JNK1_alpha1 = molecular target: T18, JNK1_alpha1 (Homo sapiens, UniProt P45983)
# T18 construct: purchased Invitrogen / ThermoFisher SelectScreen
# How it was run: as §1
# MARK3 = molecular target: T19, MARK3 (Homo sapiens, UniProt P27448)
# T19 construct: purchased Invitrogen / ThermoFisher SelectScreen
# T19 sequence (P27448 whole entry): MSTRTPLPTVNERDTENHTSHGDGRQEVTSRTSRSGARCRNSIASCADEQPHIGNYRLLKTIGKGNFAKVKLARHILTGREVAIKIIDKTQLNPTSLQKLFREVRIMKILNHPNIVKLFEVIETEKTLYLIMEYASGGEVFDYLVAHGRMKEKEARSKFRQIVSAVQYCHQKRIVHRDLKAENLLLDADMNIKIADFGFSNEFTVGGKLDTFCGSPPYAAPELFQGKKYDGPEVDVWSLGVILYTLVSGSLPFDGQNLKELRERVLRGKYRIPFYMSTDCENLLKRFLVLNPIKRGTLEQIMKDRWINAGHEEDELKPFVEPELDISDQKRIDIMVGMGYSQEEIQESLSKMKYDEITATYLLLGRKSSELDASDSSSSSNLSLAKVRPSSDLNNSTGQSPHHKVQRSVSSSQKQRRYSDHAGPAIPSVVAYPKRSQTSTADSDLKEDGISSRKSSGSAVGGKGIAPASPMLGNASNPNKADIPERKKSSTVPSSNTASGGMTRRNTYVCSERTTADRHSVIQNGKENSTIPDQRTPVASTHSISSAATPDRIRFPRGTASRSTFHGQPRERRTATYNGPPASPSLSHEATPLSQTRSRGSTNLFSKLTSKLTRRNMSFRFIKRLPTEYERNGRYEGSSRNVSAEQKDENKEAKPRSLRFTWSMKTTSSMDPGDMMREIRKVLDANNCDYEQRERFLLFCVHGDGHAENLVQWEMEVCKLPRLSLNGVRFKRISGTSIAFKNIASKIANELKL
# How it was run: as §1
# NEK6 = molecular target: T20, NEK6 (Homo sapiens, UniProt Q9HC98)
# T20 construct: purchased Invitrogen / ThermoFisher SelectScreen
# How it was run: as §1
# P38_delta = molecular target: T21, P38_delta (Homo sapiens, UniProt O15264)
# T21 construct: purchased Invitrogen / ThermoFisher SelectScreen
# T21 sequence (O15264 whole entry): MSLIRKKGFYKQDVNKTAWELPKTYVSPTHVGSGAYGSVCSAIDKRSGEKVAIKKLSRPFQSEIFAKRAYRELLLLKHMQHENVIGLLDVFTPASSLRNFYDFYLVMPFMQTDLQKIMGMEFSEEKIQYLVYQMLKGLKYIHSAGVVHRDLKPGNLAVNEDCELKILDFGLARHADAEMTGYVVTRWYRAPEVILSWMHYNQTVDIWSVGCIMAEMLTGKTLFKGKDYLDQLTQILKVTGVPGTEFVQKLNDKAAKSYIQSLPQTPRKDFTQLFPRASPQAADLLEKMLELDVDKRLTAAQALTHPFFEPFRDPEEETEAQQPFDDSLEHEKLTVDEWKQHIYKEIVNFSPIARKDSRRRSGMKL
# How it was run: as §1
# PIM1 = molecular target: T22, PIM1 (Homo sapiens, UniProt P11309)
# T22 construct: purchased Invitrogen / ThermoFisher SelectScreen
# How it was run: as §1
# PKD_delta = molecular target: T23, PKD_delta (Homo sapiens, UniProt Q05655)
# T23 construct: purchased Invitrogen / ThermoFisher SelectScreen
# How it was run: as §1
# PRAK = molecular target: T24, PRAK (Homo sapiens, UniProt Q8IW41)
# T24 construct: purchased Invitrogen / ThermoFisher SelectScreen
# How it was run: as §1
# PRK1 = molecular target: T25, PRK1 (Homo sapiens, UniProt Q16512)
# T25 construct: purchased Invitrogen / ThermoFisher SelectScreen
# How it was run: as §1
# ROCK1 = molecular target: T26, ROCK1 (Homo sapiens, UniProt Q13464)
# T26 construct: purchased Invitrogen / ThermoFisher SelectScreen
# T26 sequence (Q13464 whole entry): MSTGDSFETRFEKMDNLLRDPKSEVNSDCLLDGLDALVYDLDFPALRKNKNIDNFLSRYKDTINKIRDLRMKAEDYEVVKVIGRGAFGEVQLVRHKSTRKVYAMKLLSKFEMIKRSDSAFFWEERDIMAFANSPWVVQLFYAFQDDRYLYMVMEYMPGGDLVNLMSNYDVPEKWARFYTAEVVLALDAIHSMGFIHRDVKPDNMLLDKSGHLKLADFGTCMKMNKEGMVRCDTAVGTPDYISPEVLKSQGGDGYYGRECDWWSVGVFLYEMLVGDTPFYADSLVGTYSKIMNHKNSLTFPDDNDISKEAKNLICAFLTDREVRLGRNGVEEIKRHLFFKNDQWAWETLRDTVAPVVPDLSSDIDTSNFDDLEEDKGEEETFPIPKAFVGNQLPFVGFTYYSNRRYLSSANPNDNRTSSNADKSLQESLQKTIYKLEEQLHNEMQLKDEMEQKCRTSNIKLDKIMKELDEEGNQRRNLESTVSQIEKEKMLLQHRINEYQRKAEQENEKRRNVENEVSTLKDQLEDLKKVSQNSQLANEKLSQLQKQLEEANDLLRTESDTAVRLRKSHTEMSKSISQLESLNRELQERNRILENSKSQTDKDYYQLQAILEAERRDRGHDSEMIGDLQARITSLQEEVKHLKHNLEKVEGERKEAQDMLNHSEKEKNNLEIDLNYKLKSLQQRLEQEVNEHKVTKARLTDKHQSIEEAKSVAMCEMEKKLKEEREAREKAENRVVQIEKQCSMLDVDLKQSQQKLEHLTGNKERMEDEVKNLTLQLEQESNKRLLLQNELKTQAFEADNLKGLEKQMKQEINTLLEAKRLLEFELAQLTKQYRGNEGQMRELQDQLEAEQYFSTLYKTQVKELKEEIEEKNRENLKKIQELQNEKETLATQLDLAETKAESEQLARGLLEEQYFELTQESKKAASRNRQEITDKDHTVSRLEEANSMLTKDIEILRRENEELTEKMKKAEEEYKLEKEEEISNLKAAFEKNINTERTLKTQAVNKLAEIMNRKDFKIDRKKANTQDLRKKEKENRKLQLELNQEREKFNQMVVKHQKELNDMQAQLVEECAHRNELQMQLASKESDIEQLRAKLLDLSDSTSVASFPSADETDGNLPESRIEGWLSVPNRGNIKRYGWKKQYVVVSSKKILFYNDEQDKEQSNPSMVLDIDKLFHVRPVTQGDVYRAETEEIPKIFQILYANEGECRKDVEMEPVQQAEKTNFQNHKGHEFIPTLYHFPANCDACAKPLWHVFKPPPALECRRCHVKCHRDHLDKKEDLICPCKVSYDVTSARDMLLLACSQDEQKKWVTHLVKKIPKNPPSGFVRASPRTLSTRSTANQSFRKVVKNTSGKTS
# How it was run: as §1
# Ret = molecular target: T27, Ret (Homo sapiens, UniProt P07949)
# T27 construct: purchased Invitrogen / ThermoFisher SelectScreen
# How it was run: as §1
# Ron = molecular target: T28, Ron (Homo sapiens, UniProt Q04912)
# T28 construct: purchased Invitrogen / ThermoFisher SelectScreen
# T28 sequence (Q04912 25-1400): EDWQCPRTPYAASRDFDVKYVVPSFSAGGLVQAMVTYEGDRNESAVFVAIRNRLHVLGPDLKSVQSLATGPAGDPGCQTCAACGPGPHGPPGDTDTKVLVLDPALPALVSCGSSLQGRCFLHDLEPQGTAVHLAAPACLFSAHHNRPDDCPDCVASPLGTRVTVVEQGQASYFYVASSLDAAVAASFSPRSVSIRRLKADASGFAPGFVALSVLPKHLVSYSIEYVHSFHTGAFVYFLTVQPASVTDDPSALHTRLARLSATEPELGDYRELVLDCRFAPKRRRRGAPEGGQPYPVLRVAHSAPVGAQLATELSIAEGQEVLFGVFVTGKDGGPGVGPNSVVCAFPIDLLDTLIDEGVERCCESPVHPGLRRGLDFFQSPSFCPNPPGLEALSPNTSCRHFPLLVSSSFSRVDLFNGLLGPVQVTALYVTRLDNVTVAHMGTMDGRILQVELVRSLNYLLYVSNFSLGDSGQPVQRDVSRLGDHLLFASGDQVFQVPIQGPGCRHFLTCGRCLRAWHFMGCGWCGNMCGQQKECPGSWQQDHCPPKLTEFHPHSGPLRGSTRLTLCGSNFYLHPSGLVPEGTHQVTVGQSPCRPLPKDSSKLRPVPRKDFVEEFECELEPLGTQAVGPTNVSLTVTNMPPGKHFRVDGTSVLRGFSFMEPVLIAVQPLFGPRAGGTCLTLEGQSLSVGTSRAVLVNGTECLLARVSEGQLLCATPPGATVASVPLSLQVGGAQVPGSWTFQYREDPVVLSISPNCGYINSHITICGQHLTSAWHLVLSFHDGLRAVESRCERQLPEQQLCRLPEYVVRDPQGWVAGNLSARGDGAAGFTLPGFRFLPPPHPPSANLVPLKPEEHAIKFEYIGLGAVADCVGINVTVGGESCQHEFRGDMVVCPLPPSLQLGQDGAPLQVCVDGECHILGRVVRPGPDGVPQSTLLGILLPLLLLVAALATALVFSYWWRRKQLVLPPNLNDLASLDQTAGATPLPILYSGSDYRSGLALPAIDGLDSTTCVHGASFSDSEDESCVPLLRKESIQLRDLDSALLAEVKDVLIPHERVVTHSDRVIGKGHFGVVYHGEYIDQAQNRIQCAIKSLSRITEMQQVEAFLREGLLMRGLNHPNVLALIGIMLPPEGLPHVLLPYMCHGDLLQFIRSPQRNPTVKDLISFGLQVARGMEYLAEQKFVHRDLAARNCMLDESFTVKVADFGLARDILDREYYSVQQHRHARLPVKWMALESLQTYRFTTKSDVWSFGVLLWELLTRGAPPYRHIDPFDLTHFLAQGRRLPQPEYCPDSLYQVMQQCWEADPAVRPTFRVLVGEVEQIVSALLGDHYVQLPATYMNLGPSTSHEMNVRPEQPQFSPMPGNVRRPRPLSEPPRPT
# How it was run: as §1
# Ros = molecular target: T29, Ros (Homo sapiens, UniProt P08922)
# T29 construct: purchased Invitrogen / ThermoFisher SelectScreen
# How it was run: as §1
# SGK1 = molecular target: T30, SGK1 (Homo sapiens, UniProt O00141)
# T30 construct: purchased Invitrogen / ThermoFisher SelectScreen
# How it was run: as §1
# TrkB = molecular target: T31, TrkB (Homo sapiens, UniProt Q16620)
# T31 construct: purchased Invitrogen / ThermoFisher SelectScreen
# How it was run: as §1
# ZAP-70 = molecular target: T32, ZAP-70 (Homo sapiens, UniProt P43403)
# T32 construct: purchased Invitrogen / ThermoFisher SelectScreen
# How it was run: as §1
# p38_alpha = molecular target: T33, p38_alpha (Homo sapiens, UniProt Q16539)
# T33 construct: purchased Invitrogen / ThermoFisher SelectScreen
# T33 sequence (Q16539 whole entry): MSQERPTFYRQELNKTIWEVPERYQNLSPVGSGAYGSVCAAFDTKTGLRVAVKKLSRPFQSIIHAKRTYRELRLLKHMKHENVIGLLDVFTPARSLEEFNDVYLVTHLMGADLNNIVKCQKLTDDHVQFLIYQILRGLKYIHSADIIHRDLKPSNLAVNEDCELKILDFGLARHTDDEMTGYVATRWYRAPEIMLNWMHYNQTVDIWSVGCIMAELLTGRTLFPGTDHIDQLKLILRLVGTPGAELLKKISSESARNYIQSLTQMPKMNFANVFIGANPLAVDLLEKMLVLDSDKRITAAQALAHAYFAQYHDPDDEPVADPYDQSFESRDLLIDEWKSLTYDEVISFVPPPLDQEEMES
# How it was run: as §1
compound,measurement,setting,value
COc1cc(C(N)=O)nc(-c2cccc(C#C[C@]3(O)CCN(C)C3=O)c2)c1 [NIK SMI1],inhibition at 1 µM,CDK2/CyclinA,-1.5%
same,inhibition at 1 µM,CHK2,4.5%
same,inhibition at 1 µM,CK1_delta,-4.5%
same,inhibition at 1 µM,CLK3,14.5%
same,inhibition at 1 µM,CamKII_alpha,17.5%
same,inhibition at 1 µM,Cot,34.5%
same,inhibition at 1 µM,DYRK1A,4.5%
same,inhibition at 1 µM,FAK,10.5%
same,inhibition at 1 µM,FGFR4,7.5%
same,inhibition at 1 µM,GRK2,4.5%
same,inhibition at 1 µM,GRK3,1.5%
same,inhibition at 1 µM,GRK5,0.5%
same,inhibition at 1 µM,GRK6,9%
same,inhibition at 1 µM,HIPK1,4.5%
same,inhibition at 1 µM,IGF1R,8.5%
same,inhibition at 1 µM,IKK_alpha,3.1%
same,inhibition at 1 µM,JAK2,8.5%
same,inhibition at 1 µM,JNK1_alpha1,5.6%
same,inhibition at 1 µM,MARK3,7.5%
same,inhibition at 1 µM,NEK6,17%
same,inhibition at 1 µM,P38_delta,12.5%
same,inhibition at 1 µM,PIM1,-0.5%
same,inhibition at 1 µM,PKD_delta,1.5%
same,inhibition at 1 µM,PRAK,6%
same,inhibition at 1 µM,PRK1,5.5%
same,inhibition at 1 µM,ROCK1,9.5%
same,inhibition at 1 µM,Ret,2%
same,inhibition at 1 µM,Ron,13%
same,inhibition at 1 µM,Ros,12.5%
same,inhibition at 1 µM,SGK1,5%
same,inhibition at 1 µM,TrkB,-3.5%
same,inhibition at 1 µM,ZAP-70,17%
same,inhibition at 1 µM,p38_alpha,-7.5%

# From publication PMC5766581, “NF-κB inducing kinase is a therapeutic target for systemic lupus erythematosus” (Nature Communications, 2018)
